In ChEMBL document CHEMBL3045621, “Synthesis and Structure-activity Relationships of Herbicidal Thiophene Sulfonylurea Compounds” (J Pestic Sci, 1997):

Tests used:
Oryza sativa = test: Toxicity in two leaf stage of Oryza sativa var. Nihonbare (rice) assessed as dose required to selectivity to Oryza sativa; format: organism-based; settings: in vivo
Sagittaria pygmaea = test: Herbicidal activity against Sagittaria pygmaea assessed as dose required to cause sufficient herbicidal activity after 5 to 7 days; format: functional
[1] = tested on: Schoenoplectiella juncoides; test: Herbicidal activity against Schoenoplectiella juncoides assessed as dose required to cause sufficient herbicidal activity after 5 to 7 days; format: functional
Echinochloa oryzicola = test: Herbicidal activity against Echinochloa oryzicola assessed as dose required to cause sufficient herbicidal activity; format: functional

Compound | MED (Oryza sativa) [g/acre] | MED (Sagittaria pygmaea) [g/acre] | MED [1] [g/acre] | MED (Echinochloa oryzicola) [g/acre]
COCCOCc1ccsc1S(=O)(=O)NC(=O)Nc1nc(OC)cc(OC)n1 | 0.156 | 0.313 | 0.313 | –
COc1cc(OC)nc(NC(=O)NS(=O)(=O)c2sccc2C[N+](=O)[O-])n1 | 0.625 | – | – | –
COc1nc(NC(=O)NS(=O)(=O)c2sccc2COCCF)nc(OC)n1 | 0.313 | – | – | 5
COc1nc(NC(=O)NS(=O)(=O)Cc2sccc2COCCF)nc(OC)n1 | < 2.5 | 20 | 20 | 80
COc1cc(OC)nc(NC(=O)NS(=O)(=O)c2cscc2COCCF)n1 | 0.625 | 0.0781 | 0.156 | –
CCOCc1ccsc1S(=O)(=O)NC(=O)Nc1nc(OC)cc(OC)n1 | 0.156 | 0.0391 | 0.0391 | 0.313
COc1cc(OC)nc(NC(=O)NS(=O)(=O)c2sccc2COC(C)C(F)(F)F)n1 (stereo not drawn) | 1.25 | – | 2.5 | 5
COc1cc(OC)nc(NC(=O)NS(=O)(=O)c2sccc2COCC(F)(F)C(F)(F)C(F)(F)F)n1 | 0.625 | 10 | 20 | 10
COc1cc(OC)nc(NC(=O)NS(=O)(=O)c2sccc2COCC(F)(F)F)n1 | 1.25 | 0.156 | 0.156 | 2.5
CNC(=O)NCc1ccsc1S(=O)(=O)NC(=O)Nc1nc(OC)cc(OC)n1 | 2.5 | 10 | 20 | 10
COC(=O)Cc1ccsc1S(=O)(=O)NC(=O)Nc1nc(OC)cc(OC)n1 | 0.156 | 0.313 | 1.25 | 1.25
COc1cc(C)nc(NC(=O)NS(=O)(=O)c2sccc2COCCF)n1 | 0.156 | 0.0391 | 0.0391 | 0.0195
COc1nc(C)nc(NC(=O)NS(=O)(=O)c2sccc2COCCF)n1 | 0.0781 | 0.625 | 0.313 | 0.313
COc1cc(OC)nc(NC(=O)NS(=O)(=O)c2sccc2CSC#N)n1 | 0.313 | 0.625 | 1.25 | 1.25
COc1cc(OC)nc(NC(=O)NS(=O)(=O)c2sccc2COCCF)n1 | 0.0781 | 0.0391 | 0.0391 | 0.313
COc1nc(NC(=O)NS(=O)(=O)c2csnc2COCCF)nc(OC)n1 | > 0.313 | 0.313 | 1.25 | 5
COc1cc(Cl)nc(NC(=O)NS(=O)(=O)c2sccc2COCCF)n1 | 0.625 | 0.313 | 0.156 | 0.156
CCOC(=O)COCc1ccsc1S(=O)(=O)NC(=O)Nc1nc(OC)cc(OC)n1 | 1.25 | – | – | –
COc1cc(OC)nc(NC(=O)NS(=O)(=O)c2sccc2COCCCF)n1 | 0.625 | 0.156 | 0.313 | 0.313
COc1cc(OC)nc(NC(=O)NS(=O)(=O)c2sccc2COCCO)n1 | 0.313 | – | 0.625 | 0.625
COCc1ccsc1S(=O)(=O)NC(=O)Nc1nc(OC)cc(OC)n1 | 0.0781 | 0.0195 | 0.0391 | –

Compound | MED (Oryza sativa) [g/acre] | MED (Sagittaria pygmaea) [g/acre] | MED [1] [g/acre] | MED (Echinochloa oryzicola) [g/acre]
COc1cc(OC)nc(NC(=O)NS(=O)(=O)c2sccc2COCCCl)n1 | 0.625 | 0.156 | 0.156 | –
CCN(CC)Cc1ccsc1S(=O)(=O)NC(=O)Nc1nc(OC)cc(OC)n1 | 0.625 | – | – | 5
COc1cc(OC)nc(NC(=O)NS(=O)(=O)c2sccc2COC(C)(C)C(F)(F)F)n1 | 2.5 | 2.5 | 1.25 | 20
COc1cc(OC)nc(NC(=O)NS(=O)(=O)c2sccc2COCC(F)(F)Cl)n1 | 1.25 | – | 2.5 | 5
COc1cc(OC)nc(NC(=O)NS(=O)(=O)c2sccc2COCC(Cl)(Cl)Cl)n1 | 1.25 | 2.5 | 2.5 | 5
COc1cc(OCC(F)(F)F)nc(NC(=O)NS(=O)(=O)c2sccc2COCCF)n1 | 5 | 2.5 | 10 | 20
C=CCOCc1ccsc1S(=O)(=O)NC(=O)Nc1nc(OC)cc(OC)n1 | 0.313 | 0.156 | 0.156 | 0.625
COc1nc(NC(=O)NS(=O)(=O)c2sc3ccccc3c2COCCF)nc(OC)n1 | < 2.5 | <2.5 | <2.5 | <2.5
COc1cc(OC)nc(NC(=O)NS(=O)(=O)c2sccc2CNC(=O)CCl)n1 | 5 | 5 | 10 | 10
COc1cc(OC)nc(NC(=O)NS(=O)(=O)c2sccc2CSC)n1 | 0.156 | 0.0195 | – | 0.313
COc1cc(OC)nc(NC(=O)NS(=O)(=O)c2sccc2COC(CF)CF)n1 | 0.625 | 0.313 | – | 1.25
COc1nc(NC(=O)NS(=O)(=O)c2c(COCCF)cnn2C)nc(OC)n1 | 1.25 | – | 0.313 | 0.625
COc1nc(NC(=O)NS(=O)(=O)c2ccccc2COCCF)nc(OC)n1 | 2.5 | 10 | 40 | 40
COc1cc(OC)nc(NC(=O)NS(=O)(=O)c2sccc2CN(C)C)n1 | – | 10 | 10 | 20
COc1cc(OC)nc(NC(=O)NS(=O)(=O)c2ccsc2COCCF)n1 | 0.313 | – | 0.0781 | –
COc1cc(OC)nc(NC(=O)NS(=O)(=O)c2sccc2Cn2cccn2)n1 | 0.625 | – | 1.25 | 5
CNC(=O)Cc1ccsc1S(=O)(=O)NC(=O)Nc1nc(OC)cc(OC)n1 | 1.25 | 0.313 | 0.625 | –
COc1cc(OC)nc(NC(=O)NS(=O)(=O)c2sccc2COCCCCl)n1 | 0.313 | – | – | 1.25
Cc1cc(C)nc(NC(=O)NS(=O)(=O)c2sccc2COCCF)n1 | 0.156 | – | – | –
COc1cc(OC)nc(NC(=O)NS(=O)(=O)c2sccc2CC#N)n1 | 0.0391 | – | 0.156 | 0.625
